These results are taken from publication PMC3150614 (Journal of medicinal chemistry, 2011).

The target in one assay is T1, human arginase I (HAI) (Homo sapiens, UniProt P05089).
T1 sequence (P05089 1-322): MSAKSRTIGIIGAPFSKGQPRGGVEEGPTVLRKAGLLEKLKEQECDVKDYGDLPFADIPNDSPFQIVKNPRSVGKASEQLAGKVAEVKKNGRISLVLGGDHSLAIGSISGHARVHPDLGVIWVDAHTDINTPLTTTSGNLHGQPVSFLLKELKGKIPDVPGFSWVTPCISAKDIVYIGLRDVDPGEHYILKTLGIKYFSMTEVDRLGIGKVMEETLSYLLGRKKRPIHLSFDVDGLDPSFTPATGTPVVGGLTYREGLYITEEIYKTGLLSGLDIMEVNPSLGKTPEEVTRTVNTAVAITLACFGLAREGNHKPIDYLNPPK
Kind of assay: Surface plasmon resonance binding to immobilized HAI. Conditions: based on Kd, racemic mixtures.

The target of assay [1] is T2, Plasmodium falciparum arginase (PFA) (Plasmodium falciparum, UniProt Q8I384).
T2 sequence (Q8I384 1-411): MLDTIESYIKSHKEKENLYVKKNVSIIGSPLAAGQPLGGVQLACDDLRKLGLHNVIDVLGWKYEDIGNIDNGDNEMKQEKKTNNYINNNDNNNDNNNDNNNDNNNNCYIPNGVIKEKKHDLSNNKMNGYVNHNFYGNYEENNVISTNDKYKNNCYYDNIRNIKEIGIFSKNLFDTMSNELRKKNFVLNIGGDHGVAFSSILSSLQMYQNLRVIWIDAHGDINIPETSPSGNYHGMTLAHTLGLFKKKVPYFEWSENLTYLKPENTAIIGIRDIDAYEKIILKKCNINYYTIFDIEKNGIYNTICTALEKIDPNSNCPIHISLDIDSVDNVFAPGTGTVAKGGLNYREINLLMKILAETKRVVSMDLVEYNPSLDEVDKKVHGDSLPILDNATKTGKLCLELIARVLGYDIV
Format: biochemical. Conditions: racemic mixtures.

As for `NC(CCCCB(O)O)(C(=O)O)C(F)F` (stereo not shown) [FABH, 2-Amino-6-borono-2-(difluoromethyl)hexanoic acid], the “fold less tight binding to HAI compared with ABH” value at human arginase I (HAI) is listed as 1889 fold. The “fold weaker inhibitory potency against PFA than ABH, based on Ki” value in assay [1] is 200 fold.
The matching figures for `CC(N)(CCCCB(O)O)C(=O)O` (stereo not shown) [MABH, 2-Amino-6-borono-2-methylhexanoic acid]: 49 fold and 26 fold.
